According to patent US10196361B2, “Sodium salt of uric acid transporter inhibitor and crystalline form thereof” (Jiangsu Hengrui Medicine Co., Ltd., priority 2015, dated 2019):

Columns and labels:
[1] = stability of crystal form I under lighting, heating and high humidity (purity by HPLC); assay type: physicochemical; details: for stability: spread flat in the air, lighting, high temperature and high humidity
Protocol: The sample of crystal form I prepared in Example 1 was spread flat in the air to test its stability under conditions of lighting (4500 Lux), heating (40° C., 60° C.), and high humidity (RH 75%, RH 90%). Samplings were carried out on Day 5 and Day 10.

solubility in water = assay type: physicochemical
[2] = special stability study of crystal form I (grinding, heating, pressing); assay type: physicochemical
Text: Crystal form I of the compound of formula (I) prepared according to the method of Example 1 was ground, heated and pressed.

[3] = pharmacokinetic assay in rats; assay type: in vivo, Sprague-Dawley (SD) rats; details: for AUC(0-t) / half-life / MRT inf / Cmax: single; for AUC(0-t): read-out: Area under curve AUC0-t; for half-life: read-out: Half life t1/2 (converted); for MRT inf: read-out: Resistance time MRT0-∞; for Cmax: read-out: Plasma concentration Cmax
Protocol: (§1) In the pharmacokinetic assay of the compound of Example 1 of the present invention, Sprague-Dawley (SD) rats were used as test animals. The compound of Example 1 was administrated intragastrically and intravenously to rats, then the drug concentration in the plasma at different time points was determined by a LC/MS/MS method to study the pharmacokinetic behavior and to evaluate the pharmacokinetic characteristics of the compound of the present invention in rats.

[4] = pharmacokinetic assay in dogs; assay type: in vivo, Beagle dogs; details: for AUC(0-t) / half-life / MRT inf / Cmax: single; for AUC(0-t): read-out: Area under curve AUC0-t; for half-life: read-out: Half life t1/2 (converted); for MRT inf: read-out: Resistance time MRT0-∞; for Cmax: read-out: Plasma concentration Cmax
Protocol: as §1, with “Beagle dogs” for “Sprague-Dawley (SD) rats”, “dogs,” for “rats,”, “dogs.” for “rats.”

[5] = Sprague-Dawley, rat, plasma, intravenous, 3 mg/kg
[6] = Sprague-Dawley, rat, plasma, po, intragastric, 3 mg/kg
[7] = Sprague-Dawley, rat, plasma, po, intragastric, 9 mg/kg
[8] = Sprague-Dawley, rat, plasma, po, intragastric, 27 mg/kg
[9] = Beagle, dog, plasma, intravenous, 3 mg/kg
[10] = Beagle, dog, plasma, po, intragastric, 3 mg/kg
[11] = Beagle, dog, plasma, po, intragastric, 9 mg/kg
[12] = beagle, dog, plasma, po, intragastric, 27 mg/kg

O=C([O-])C1(Sc2ccnc3ccc(Br)cc23)CCC1.[Na+] [Example 1, sodium 1-((6-bromoquinolin-4-yl)thio)cyclobutane-1-carboxylate]
purity as detected by HPLC ([1]; 40° C., day 0): 99.76%
purity as detected by HPLC ([1]; 40° C., day 5): 99.73%
purity as detected by HPLC ([1]; 40° C., day 10): 99.73%
purity as detected by HPLC ([1]; 60° C., day 0): 99.76%
purity as detected by HPLC ([1]; 60° C., day 5): 99.73%
purity as detected by HPLC ([1]; 60° C., day 10): 99.71%
purity as detected by HPLC ([1]; Lighting (4500 Lux), day 0): 99.76%
purity as detected by HPLC ([1]; Lighting (4500 Lux), day 5): 99.75%
purity as detected by HPLC ([1]; Lighting (4500 Lux), day 10): 99.70%
purity as detected by HPLC ([1]; RH 75%, day 0): 99.76%
purity as detected by HPLC ([1]; RH 75%, day 5): 99.74%
purity as detected by HPLC ([1]; RH 75%, day 10): 99.74%
purity as detected by HPLC ([1]; RH 90%, day 0): 99.76%
purity as detected by HPLC ([1]; RH 90%, day 5): 99.74%
purity as detected by HPLC ([1]; RH 90%, day 10): 99.73%
stability ([1]; listed as crystal form I): good stability
stability ([1]; listed as crystal form I of the compound of formula (I)): stable
solubility (solubility in water): 140 µg/mL
DSC peak after treatment ([2]; Grinding treatment for 10 minutes): >300 °C
DSC peak after treatment ([2]; Heating treatment for 3 hours at 80° C.): >300 °C
DSC peak after treatment ([2]; Pressing treatment): >300 °C
stability of the crystal form ([2]; grinding, heating and pressure): stable
oral absorption [3]: well absorbed
AUC(0-t) [3, 5]: 56000 ± 19600 ng·h/mL
half-life [3, 5]: 5.5 ± 1.88 h
MRT inf [3, 5]: 6.18 ± 1.33 h
AUC(0-t) [3, 6]: 41500 ± 27200 ng·h/mL
half-life [3, 6]: 4.58 ± 0.85 h
Cmax [3, 6]: 10500 ± 7900 ng/mL
MRT inf [3, 6]: 6.15 ± 1.51 h
AUC(0-t) [3, 7]: 119000 ± 65000 ng·h/mL
half-life [3, 7]: 5.07 ± 2.08 h
Cmax [3, 7]: 22000 ± 11000 ng/mL
MRT inf [3, 7]: 7.11 ± 1.75 h
AUC(0-t) [3, 8]: 336000 ± 241000 ng·h/mL
half-life [3, 8]: 4.59 ± 0.5 h
Cmax [3, 8]: 38800 ± 17000 ng/mL
MRT inf [3, 8]: 7.09 ± 1.33 h
bioavailability ([3]; Sprague-Dawley, rat, plasma, po, single intragastric 3 mg/kg, from mean AUC0-t, read-out: absolute bioavailability): 74.1%
oral absorption [4]: well absorbed
AUC(0-t) [4, 9]: 14500 ± 3600 ng·h/mL
half-life [4, 9]: 4.51 ± 2.25 h
MRT inf [4, 9]: 3.57 ± 1.89 h
AUC(0-t) [4, 10]: 8630 ± 3440 ng·h/mL
half-life [4, 10]: 3.49 ± 1.2 h
Cmax [4, 10]: 8450 ± 2100 ng/mL
MRT inf [4, 10]: 3.03 ± 1.03 h
AUC(0-t) [4, 11]: 37500 ± 10800 ng·h/mL
half-life [4, 11]: 3.83 ± 2 h
Cmax [4, 11]: 27600 ± 4800 ng/mL
MRT inf [4, 11]: 3.48 ± 1.36 h
AUC(0-t) [4, 12]: 105000 ± 30900 ng·h/mL
half-life [4, 12]: 4.31 ± 1.6 h
Cmax [4, 12]: 78600 ± 22000 ng/mL
MRT inf [4, 12]: 3.38 ± 0.96 h
bioavailability ([4]; beagle, dog, plasma, po, single intragastric 3 mg/kg, from mean AUC0-t, read-out: absolute bioavailability): 59.5%

O=C(O)C1(Sc2ccnc3ccc(Br)cc23)CCC1 [1-((6-bromoquinolin-4-yl)thio)cyclobutane-1-carboxylic acid, reference compound]
solubility in water (solubility in water): almost insoluble
